Assay [1] in a line: Mechanistic tissue assay (arteria saphena rabbit). It is filed as tissue-based, Oryctolagus cuniculus, Saphenous artery.
The target of assay [2] is Phosphatidylinositol 4,5-bisphosphate 3-kinase catalytic subunit alpha isoform (Homo sapiens) (UniProt P42336). In words: PIK3 (h) Upstate kinase activity assay. Particulars: Compound concentration 10.0 uM.
The target of assay [3] is Tyrosine-protein kinase Fgr (Homo sapiens) (UniProt P09769). In words: Fgr (h) Upstate kinase activity assay. The conditions noted are these: Compound concentration 10.0 uM.
The target in assay [4] is T1, Mitogen-activated protein kinase 13 (Homo sapiens) (UniProt O15264).
T1 sequence (whole entry): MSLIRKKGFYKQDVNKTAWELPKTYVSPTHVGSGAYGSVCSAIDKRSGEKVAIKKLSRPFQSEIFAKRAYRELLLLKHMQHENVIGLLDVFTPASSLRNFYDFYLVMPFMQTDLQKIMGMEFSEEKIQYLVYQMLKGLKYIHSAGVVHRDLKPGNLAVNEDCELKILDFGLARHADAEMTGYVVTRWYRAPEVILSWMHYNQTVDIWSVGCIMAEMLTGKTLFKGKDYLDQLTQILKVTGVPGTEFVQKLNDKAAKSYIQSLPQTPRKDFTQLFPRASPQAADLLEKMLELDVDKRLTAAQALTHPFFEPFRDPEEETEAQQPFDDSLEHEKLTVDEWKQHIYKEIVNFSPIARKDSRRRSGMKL
In words: SAPK4 (h) Upstate kinase activity assay. Particulars: Compound concentration 10.0 uM.

Assay [5] deals with T2, Protein kinase C iota type (Homo sapiens) (UniProt P41743).
T2 sequence (whole entry): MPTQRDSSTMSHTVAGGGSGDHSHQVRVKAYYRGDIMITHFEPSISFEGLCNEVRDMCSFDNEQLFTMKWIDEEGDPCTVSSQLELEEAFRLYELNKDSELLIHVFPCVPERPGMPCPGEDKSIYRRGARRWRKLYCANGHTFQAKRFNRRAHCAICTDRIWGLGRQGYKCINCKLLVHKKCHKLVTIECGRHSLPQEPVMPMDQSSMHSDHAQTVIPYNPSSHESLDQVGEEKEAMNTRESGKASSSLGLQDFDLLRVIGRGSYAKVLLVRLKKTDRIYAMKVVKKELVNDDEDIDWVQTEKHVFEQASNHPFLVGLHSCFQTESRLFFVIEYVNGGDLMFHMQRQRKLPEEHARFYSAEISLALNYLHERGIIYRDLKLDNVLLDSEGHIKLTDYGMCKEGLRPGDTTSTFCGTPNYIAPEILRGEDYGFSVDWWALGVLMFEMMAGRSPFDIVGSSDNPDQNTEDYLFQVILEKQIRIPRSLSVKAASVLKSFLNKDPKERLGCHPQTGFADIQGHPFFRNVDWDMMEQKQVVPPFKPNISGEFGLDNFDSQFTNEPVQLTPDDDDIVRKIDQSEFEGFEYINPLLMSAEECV
In words: PKCiota (h) Upstate kinase activity assay. The conditions noted are these: Compound concentration 10.0 uM.

In assay [6] the test system is SK-N-MC. In words: Neuroepithelioma SK-N-MC cell line MDS Pharma Services Proliferation Assay. Format: functional, cell-based, Homo sapiens.
Assay [7] concerns the target Mitogen-activated protein kinase 14 (Homo sapiens) (UniProt Q16539). In words: SAPK2a (h) Upstate kinase activity assay. Particulars: Compound concentration 10.0 uM.
Assay [8] deals with T3, Serine/threonine-protein kinase D2 (Homo sapiens) (UniProt Q9BZL6).
T3 sequence (whole entry): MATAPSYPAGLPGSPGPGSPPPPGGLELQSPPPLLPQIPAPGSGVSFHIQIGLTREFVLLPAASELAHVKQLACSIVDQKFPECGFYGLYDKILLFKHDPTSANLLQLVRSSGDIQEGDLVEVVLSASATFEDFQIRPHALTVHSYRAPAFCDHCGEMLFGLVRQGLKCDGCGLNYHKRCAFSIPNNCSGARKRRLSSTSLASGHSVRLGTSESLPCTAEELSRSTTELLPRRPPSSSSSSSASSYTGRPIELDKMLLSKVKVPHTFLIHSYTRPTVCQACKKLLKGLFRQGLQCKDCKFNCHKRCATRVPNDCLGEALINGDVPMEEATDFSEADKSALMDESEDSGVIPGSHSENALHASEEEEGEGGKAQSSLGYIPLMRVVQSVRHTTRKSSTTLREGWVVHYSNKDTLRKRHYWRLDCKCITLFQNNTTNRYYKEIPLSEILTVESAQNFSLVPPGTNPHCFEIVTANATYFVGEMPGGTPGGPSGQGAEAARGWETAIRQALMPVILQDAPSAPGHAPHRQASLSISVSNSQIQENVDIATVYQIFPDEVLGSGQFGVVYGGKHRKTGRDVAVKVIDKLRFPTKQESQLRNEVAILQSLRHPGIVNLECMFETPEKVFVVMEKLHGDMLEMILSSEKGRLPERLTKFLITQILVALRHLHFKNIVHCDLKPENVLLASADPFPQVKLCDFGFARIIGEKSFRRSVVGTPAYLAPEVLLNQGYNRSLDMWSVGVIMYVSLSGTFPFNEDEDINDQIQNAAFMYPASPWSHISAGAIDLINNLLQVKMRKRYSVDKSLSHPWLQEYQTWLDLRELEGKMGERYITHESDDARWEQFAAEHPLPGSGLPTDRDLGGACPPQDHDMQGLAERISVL
In words: PKD2 (h) Upstate kinase activity assay. The conditions noted are these: Compound concentration 10.0 uM.

Assay [9] addresses Ribosomal protein S6 kinase alpha-1 (Homo sapiens) (UniProt Q15418). In words: Rsk1 (h) Upstate kinase activity assay. Particulars: Compound concentration 10.0 uM.
In assay [10] the target is T4, Mitogen-activated protein kinase 12 (Homo sapiens) (UniProt P53778).
T4 sequence (whole entry): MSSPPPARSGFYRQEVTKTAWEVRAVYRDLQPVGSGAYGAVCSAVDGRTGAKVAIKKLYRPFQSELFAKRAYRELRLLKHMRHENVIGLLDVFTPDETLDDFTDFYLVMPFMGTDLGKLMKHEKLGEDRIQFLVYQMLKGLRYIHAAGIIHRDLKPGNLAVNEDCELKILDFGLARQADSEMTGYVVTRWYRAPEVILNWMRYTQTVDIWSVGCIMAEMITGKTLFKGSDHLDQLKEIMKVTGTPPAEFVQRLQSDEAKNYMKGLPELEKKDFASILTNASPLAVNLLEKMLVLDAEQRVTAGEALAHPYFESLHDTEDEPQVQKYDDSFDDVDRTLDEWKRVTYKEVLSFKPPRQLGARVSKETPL
In words: SAPK3 (h) Upstate kinase activity assay. Particulars: Compound concentration 10.0 uM.

The target in assay [11] is Tyrosine-protein kinase ABL1 (Homo sapiens) (UniProt P00519). In words: Abl (h) Upstate kinase activity assay. Particulars: Compound concentration 10.0 uM.
The target in assay [12] is Protein kinase C beta type (Homo sapiens) (UniProt P05771). In words: PKCBI (h) Upstate kinase activity assay. Particulars: Compound concentration 10.0 uM.
The target in assay [13] is Proto-oncogene tyrosine-protein kinase Src (Homo sapiens) (UniProt P12931). In words: cSRC (h) Upstate kinase activity assay. Particulars: Compound concentration 10.0 uM.
In assay [14] the target is Rho-associated protein kinase 2 (Homo sapiens, UniProt O75116). In words: Biochemical ROCK2 assay.
Assay [15] relates to Epidermal growth factor receptor (Homo sapiens), P00533 [UNDEFINED MUTATION]. Particulars: Compound concentration 100.0 nM.

Results on 2 compounds are retold here after ChEMBL document CHEMBL4507274 (2021).

Broadly, the IC50 is the concentration that inhibits the measured activity by half. For orientation: inhibition means the drop in the measured response relative to a control, in per cent. As usually defined, the TGI is the concentration at which net growth stops. Broadly, the residual activity is the signal under treatment as a percentage of the control signal.

SMILES strings stand for the structures. The source made the active and inactive calls. The calls are words filed in the database; no cut-off is given here.

Chain of Tyrosine-protein kinase Fgr (Homo sapiens) (P09769 2-529 limits assumed): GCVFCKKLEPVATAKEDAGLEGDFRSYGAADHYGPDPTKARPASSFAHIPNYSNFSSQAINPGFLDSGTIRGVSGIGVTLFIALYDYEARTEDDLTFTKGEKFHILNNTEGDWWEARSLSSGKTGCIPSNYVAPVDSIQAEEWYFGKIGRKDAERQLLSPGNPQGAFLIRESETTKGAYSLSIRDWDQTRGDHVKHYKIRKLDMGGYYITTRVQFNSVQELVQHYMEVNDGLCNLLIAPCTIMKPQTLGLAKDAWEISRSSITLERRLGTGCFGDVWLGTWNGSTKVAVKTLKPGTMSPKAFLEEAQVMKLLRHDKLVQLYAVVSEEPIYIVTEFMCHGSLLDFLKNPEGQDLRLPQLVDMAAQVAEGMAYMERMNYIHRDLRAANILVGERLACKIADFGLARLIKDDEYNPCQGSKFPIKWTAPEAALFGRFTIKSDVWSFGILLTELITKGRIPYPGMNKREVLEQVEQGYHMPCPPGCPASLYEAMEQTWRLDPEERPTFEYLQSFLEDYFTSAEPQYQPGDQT
Chain of Tyrosine-protein kinase ABL1 (Homo sapiens) (P00519 whole entry): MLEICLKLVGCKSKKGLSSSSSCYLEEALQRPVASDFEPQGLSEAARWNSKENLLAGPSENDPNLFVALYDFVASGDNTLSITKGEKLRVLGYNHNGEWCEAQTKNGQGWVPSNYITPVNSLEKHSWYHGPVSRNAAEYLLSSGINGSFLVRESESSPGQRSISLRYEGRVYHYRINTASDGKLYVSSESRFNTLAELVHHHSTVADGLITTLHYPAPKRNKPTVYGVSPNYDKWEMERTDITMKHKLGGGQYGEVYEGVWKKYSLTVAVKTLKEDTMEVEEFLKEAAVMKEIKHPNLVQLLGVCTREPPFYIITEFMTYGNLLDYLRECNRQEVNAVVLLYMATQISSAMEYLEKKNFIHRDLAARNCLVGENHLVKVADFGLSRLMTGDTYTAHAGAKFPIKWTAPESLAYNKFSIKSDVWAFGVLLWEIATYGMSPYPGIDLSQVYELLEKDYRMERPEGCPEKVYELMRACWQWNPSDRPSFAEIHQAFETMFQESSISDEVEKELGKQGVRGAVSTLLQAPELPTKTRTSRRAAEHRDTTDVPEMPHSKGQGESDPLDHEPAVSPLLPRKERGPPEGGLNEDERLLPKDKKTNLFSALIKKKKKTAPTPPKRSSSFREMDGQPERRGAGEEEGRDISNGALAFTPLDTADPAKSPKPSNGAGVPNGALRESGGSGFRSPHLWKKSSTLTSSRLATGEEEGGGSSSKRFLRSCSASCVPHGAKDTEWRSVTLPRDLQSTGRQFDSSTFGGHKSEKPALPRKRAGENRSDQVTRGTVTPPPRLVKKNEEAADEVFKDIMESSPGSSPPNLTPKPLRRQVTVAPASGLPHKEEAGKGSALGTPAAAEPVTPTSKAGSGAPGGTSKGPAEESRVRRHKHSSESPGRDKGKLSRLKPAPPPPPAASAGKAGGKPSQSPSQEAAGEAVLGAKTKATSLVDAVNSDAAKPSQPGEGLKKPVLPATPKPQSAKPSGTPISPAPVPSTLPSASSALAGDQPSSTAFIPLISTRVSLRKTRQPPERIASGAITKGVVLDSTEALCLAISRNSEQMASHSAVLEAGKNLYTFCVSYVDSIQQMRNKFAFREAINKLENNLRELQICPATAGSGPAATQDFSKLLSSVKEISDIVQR
Chain of Phosphatidylinositol 4,5-bisphosphate 3-kinase catalytic subunit alpha isoform (Homo sapiens) (P42336 whole entry, canonical isoform): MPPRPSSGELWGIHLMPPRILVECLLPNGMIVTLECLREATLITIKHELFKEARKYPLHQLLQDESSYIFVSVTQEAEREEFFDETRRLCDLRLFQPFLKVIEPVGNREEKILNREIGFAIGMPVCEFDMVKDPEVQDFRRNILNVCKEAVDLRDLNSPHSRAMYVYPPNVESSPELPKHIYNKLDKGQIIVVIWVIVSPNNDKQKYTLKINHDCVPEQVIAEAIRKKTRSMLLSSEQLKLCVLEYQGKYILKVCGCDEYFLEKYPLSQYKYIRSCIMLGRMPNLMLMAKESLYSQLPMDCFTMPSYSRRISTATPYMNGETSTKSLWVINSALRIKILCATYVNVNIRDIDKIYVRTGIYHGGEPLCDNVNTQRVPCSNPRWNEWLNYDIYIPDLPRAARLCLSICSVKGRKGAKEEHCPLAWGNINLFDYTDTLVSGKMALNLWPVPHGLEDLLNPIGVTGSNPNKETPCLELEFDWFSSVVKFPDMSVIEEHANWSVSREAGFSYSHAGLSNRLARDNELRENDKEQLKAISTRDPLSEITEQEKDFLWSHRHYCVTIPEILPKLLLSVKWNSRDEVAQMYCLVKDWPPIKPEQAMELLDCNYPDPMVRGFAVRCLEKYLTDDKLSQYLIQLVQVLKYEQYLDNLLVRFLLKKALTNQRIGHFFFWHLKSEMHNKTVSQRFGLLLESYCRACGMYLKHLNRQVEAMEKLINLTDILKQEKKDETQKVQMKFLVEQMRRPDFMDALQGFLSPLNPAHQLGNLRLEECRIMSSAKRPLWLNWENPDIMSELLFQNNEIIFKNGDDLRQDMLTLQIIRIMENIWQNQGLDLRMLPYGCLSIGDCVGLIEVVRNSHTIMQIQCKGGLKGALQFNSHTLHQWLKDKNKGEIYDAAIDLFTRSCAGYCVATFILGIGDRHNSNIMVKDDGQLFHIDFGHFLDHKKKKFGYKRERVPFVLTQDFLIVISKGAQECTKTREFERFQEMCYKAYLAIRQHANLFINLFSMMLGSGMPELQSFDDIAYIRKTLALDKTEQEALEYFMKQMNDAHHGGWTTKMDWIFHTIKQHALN
Chain of Ribosomal protein S6 kinase alpha-1 (Homo sapiens) (Q15418 whole entry): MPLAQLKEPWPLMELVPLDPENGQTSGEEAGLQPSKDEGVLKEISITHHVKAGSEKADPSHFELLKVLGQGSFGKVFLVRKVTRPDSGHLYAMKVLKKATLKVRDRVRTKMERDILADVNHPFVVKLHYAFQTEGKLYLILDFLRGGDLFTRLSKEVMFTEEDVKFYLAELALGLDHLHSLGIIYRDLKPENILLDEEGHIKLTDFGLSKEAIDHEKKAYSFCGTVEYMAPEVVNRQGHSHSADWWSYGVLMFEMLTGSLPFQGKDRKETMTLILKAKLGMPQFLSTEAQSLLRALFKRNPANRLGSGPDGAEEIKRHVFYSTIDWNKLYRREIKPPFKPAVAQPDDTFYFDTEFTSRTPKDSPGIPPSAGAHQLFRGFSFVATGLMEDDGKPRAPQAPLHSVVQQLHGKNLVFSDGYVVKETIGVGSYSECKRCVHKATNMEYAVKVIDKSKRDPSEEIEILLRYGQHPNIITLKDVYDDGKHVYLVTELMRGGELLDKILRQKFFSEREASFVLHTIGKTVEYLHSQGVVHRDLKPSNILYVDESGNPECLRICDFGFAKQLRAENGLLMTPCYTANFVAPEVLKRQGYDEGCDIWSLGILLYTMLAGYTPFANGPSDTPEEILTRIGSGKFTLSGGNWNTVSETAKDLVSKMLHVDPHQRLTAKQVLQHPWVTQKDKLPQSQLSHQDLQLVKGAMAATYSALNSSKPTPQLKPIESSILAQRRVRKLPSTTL
Chain of Rho-associated protein kinase 2 (O75116 whole entry): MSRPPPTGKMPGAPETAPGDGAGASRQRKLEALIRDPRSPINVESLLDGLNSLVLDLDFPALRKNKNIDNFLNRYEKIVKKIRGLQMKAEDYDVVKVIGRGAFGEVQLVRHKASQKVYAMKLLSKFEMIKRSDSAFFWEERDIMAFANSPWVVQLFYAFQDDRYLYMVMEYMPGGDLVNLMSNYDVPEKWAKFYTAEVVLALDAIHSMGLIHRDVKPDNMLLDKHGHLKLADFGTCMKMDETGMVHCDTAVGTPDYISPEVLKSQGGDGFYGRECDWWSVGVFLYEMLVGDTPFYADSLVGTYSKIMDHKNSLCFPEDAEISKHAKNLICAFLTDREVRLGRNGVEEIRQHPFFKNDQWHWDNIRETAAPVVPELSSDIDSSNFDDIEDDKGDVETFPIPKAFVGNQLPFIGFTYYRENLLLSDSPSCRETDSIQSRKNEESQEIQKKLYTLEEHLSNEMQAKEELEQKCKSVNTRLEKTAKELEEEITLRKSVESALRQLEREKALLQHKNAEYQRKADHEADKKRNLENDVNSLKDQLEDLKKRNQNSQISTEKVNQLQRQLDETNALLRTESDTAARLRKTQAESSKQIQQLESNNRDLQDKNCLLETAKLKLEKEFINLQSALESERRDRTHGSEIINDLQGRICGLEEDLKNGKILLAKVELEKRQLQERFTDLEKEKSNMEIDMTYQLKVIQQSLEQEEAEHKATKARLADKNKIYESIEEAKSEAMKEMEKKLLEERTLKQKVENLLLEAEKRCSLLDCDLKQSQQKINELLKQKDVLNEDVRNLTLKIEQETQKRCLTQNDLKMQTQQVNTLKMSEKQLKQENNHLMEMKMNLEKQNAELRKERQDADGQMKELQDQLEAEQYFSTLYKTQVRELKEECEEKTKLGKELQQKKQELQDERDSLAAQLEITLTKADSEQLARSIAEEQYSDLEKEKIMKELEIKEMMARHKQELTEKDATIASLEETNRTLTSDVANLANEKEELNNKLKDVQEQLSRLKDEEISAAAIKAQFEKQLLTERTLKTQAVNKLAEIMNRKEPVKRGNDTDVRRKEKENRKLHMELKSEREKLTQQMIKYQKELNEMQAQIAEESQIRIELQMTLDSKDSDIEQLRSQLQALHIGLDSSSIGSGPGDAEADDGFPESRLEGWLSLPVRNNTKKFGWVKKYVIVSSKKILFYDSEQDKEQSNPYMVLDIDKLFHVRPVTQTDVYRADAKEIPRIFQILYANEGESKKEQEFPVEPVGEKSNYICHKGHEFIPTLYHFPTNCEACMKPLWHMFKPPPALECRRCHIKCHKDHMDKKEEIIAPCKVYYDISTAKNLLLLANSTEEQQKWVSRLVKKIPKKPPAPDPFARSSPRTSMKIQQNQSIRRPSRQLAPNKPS

Take `Cc1c[nH]c2nccc(Oc3c(F)cc(Nc4cc(Cl)nc(N)n4)cc3F)c12` [BAY-549]: the IC50 in [1] was 0.065 µM (active); in assay [6] (Homo sapiens, SK-N-MC), 7.9 µM. Moreover, the inhibition in assay [2] was -3%; in [3] it was 27%; in assay [4], 16%; in assay [5], 18%; in [7], 21%; in assay [8], 28%. In addition, the inhibition in assay [9] was 72%; in [10], 4%; in assay [11], 14%; in [12], 8%; in [13] it was -4%. Total growth inhibition in assay [6] (Homo sapiens, SK-N-MC) (TGI) required 20 µM. Besides, in assay [6] (Homo sapiens, SK-N-MC, read-out: LC50 (the source's name)), the CC50 was determined as 52 µM. Further, in assay [6] (± SEM 3 % growth), the “Mean % growth (n = 2) for 10.0 µM probe concentration” value worked out at 38%. Further, the “Mean % growth (n = 2) for 0.1 µM probe concentration” value in assay [6] (± SEM 4 % growth) came to 103%. Moreover, in [6] (± SEM 5 % growth), the “Mean % growth (n = 2) for 1.0 µM probe concentration” value was 98%. Also, in assay [6] (± SEM 6 % growth), the “Mean % growth (n = 2) for 0.01 µM probe concentration” value is listed as 103%. In addition, the “Mean % growth (n = 2) for 100.0 µM probe concentration” value in [6] (± SEM 8 % growth) is -72%.

Regarding `Cn1cc(Cl)c2c(Oc3c(F)cc(Nc4cc(Cl)nc(N)n4)cc3F)ccnc21` [BAY-4900], the IC50 in [14] is given as 17.7 µM (not active). Moreover, the residual activity in assay [15] was 73%.
